Measurements taken from patent publication US8268805B2, “Use of ceramides for depigmenting the skin” (L'Oreal, priority 2005, dated 2012).

What was measured:
[1] = tested on: coculture of keratinocytes and melanocytes; assay: Modulatory effect on melanogenesis: inhibition of melanin synthesis (thiouracil/leucine incorporation ratio); type: cell-based; conditions: ratio of thiouracil to leucine incorporation related to 100% of control, read-out: IC50 (concentration for which 50% of the melanin synthesis is inhibited)
Procedure: The modulatory effect on melanogenesis of the compounds tested was measured according to the method described in patent FR-A-2734825, and also in the article by R. Schmidt, P. Krien and M. Regnier, Anal. Biochem., 235(2), 113-18, 1996. This test is carried out on a coculture of keratinocytes and melanocytes.
For the compound tested, the inhibitory activity on melanin synthesis was determined by estimating the ratio of thiouracil incorporation to leucine incorporation, related to 100% of the control (the control corresponds to the test carried out without compound to be tested). The IC50 values (concentration for which 50% of the melanin synthesis is inhibited) were determined.
The test was also carried out with arbutin and lucinol (2-butylbenzene-1,3-diol), which are known depigmenting compounds.

[2] = tested on: tyrosinase activity of the melanocytes of human skin; conditions: cited from earlier work

SMILES	IC50 [1]	effect on the tyrosinase activity of the melanocytes of human skin [2]
CCCCCCCCCCCCC/C=C/[C@@H](O)[C@H](CO)NC(C)=O [N-acetyl-D-erythrosphingosine]		has an effect
CCCCCCCCCCCCC/C=C/[C@@H](O)[C@@H](N)COP(=O)(O)O [sphingosine-1-phosphate]		no effect

Now from value to molecule, other results behind:

IC50 [1]	SMILES	effect on the tyrosinase activity of the melanocytes of human skin [2]
209000 nM	OC[C@H]1O[C@@H](Oc2ccc(O)cc2)[C@H](O)[C@@H](O)[C@@H]1O [Arbutin]	
100 nM	CCCCCCCCCCCCCCCC(O)C(CO)NC(=O)C(O)CCCCCCCCCCCCCC (centres unmarked) [N-2-hydroxypalmitoyldihydrosphingosine]	
100 nM	CCCCCCCC/C=C\CCCCCCCC(=O)NC(CO)C(O)CCCCCCCCCCCCCCC (centres unmarked) [N-oleoyldihydrosphingosine]	
